The source of these data is PMC6792352, “Limited Chemical Structural Diversity Found to Modulate Thyroid Hormone Receptor in the Tox21 Chemical Library” (Environmental Health Perspectives, 2019).

The nature of this data set: in vitro. To be noted: rat, gh3-tre-luc cells.

Molecules are shown by their SMILES. Where a name gives a salt, the structure may show the parent alone. Non-standard residues stand in square brackets, D forms with d. Residues, ends and D or L forms follow the SMILES beside them. pGlu = O=C1CC[C@@H](C(=O)O)N1; Thz = O=C(O)[C@@H]1CSCN1

`O=CC(=O)c1ccccc1` [Phenylglyoxal] came in with a CC50 at 24 h (AC50 (uM) modified / 1000) above 90 µM.

As for `NNc1ccccc1` [Phenylhydrazine hydrochloride], the CC50 at 24 h is, setting by setting: (AC50 (uM) modified / 1000, Tox21_110001=Tox21_111618, viability, 1 nM T3 present, 24 h) above 50 µM; (AC50 (uM) modified / 1000, Tox21_110001=Tox21_202198, viability, 1 nM T3 present, 24 h) 40.6 µM; (AC50 (uM) modified / 1000, Tox21_110001=Tox21_302936, viability, 1 nM T3 present, 24 h) 66.7 µM.

Take `NNc1ccccc1` [Phenylhydrazine]: the CC50 at 24 h came out at 71 µM (AC50 (uM) modified / 1000, Tox21_110001=Tox21_201977, viability, 1 nM T3 present, 24 h) and 42 µM (AC50 (uM) modified / 1000, Tox21_110001=Tox21_303018, viability, 1 nM T3 present, 24 h).

`O=C(Oc1ccccc1)c1ccc(O)cc1` [Phenylparaben] had a 50% cytotoxic concentration (CC50) at 24 h (AC50 (uM) modified / 1000) above 90 µM.

With `OP(O)c1ccccc1` [Phenylphosphinic acid], the half-maximal cytotoxic concentration (CC50) at 24 h (AC50 (uM) modified / 1000) is above 90 µM.

Take `O=P(O)(O)c1ccccc1` [Phenylphosphonic acid]: for the setting “AC50 (uM) modified / 1000, Tox21_110001=Tox21_302060, viability, 1 nM T3 present, 24 h”, the CC50 at 24 h was above 90 µM.

Where the note is “AC50 (uM) modified / 1000, Tox21_110001=Tox21_110431, viability, 1 nM T3 present, 24 h”, `C[C@H](N)[C@H](O)c1ccccc1` [Phenylpropanolamine hydrochloride] displayed a CC50 at 24 h above 20 µM.

Compound `O=C(O)C(=O)Cc1ccccc1` [Phenylpyruvic acid] came in with a 50% cytotoxic concentration (CC50) at 24 h (AC50 (uM) modified / 1000) above 90 µM.

Where the note is “AC50 (uM) modified / 1000”, `O=C(CCc1ccc(O)cc1)c1c(O)cc(O)cc1O` [Phloretin] came in with a CC50 at 24 h of 61.2 µM.

In the case of `CCOP(=S)(OCC)SCSCC` [Phorate], under “AC50 (uM) modified / 1000, Tox21_110001=Tox21_300398, viability, 1 nM T3 present, 24 h”, the 50% cytotoxic concentration (CC50) at 24 h was above 90 µM.

As to `CC(C)=CC(=O)C=C(C)C` [Phorone], for the setting “AC50 (uM) modified / 1000”, the CC50 at 24 h was above 90 µM.

For the compound `CCOP(=S)(OCC)SCn1c(=O)oc2cc(Cl)ccc21` [Phosalone], the half-maximal cytotoxic concentration (CC50) at 24 h runs as follows: (AC50 (uM) modified / 1000, Tox21_110001=Tox21_202294, viability, 1 nM T3 present, 24 h) above 100 µM; (AC50 (uM) modified / 1000, Tox21_110001=Tox21_300811, viability, 1 nM T3 present, 24 h) 80.4 µM.

As for `CCOP(=O)(N=C1SCCS1)OCC` [Phosfolan], for the setting “AC50 (uM) modified / 1000, Tox21_110001=Tox21_301905, viability, 1 nM T3 present, 24 h”, the CC50 at 24 h is above 90 µM.

For the compound `COP(=S)(OC)SCN1C(=O)c2ccccc2C1=O` [Phosmet], the half-maximal cytotoxic concentration (CC50) at 24 h by setting is: (AC50 (uM) modified / 1000, Tox21_110001=Tox21_110993, viability, 1 nM T3 present, 24 h) above 50 µM; (AC50 (uM) modified / 1000, Tox21_110001=Tox21_202316, viability, 1 nM T3 present, 24 h) above 90 µM.

For `CCN(CC)C(=O)C(Cl)=C(C)OP(=O)(OC)OC` [Phosphamidon], the CC50 at 24 h runs as follows: (AC50 (uM) modified / 1000, Tox21_110001=Tox21_112409, viability, 1 nM T3 present, 24 h) above 50 µM; (AC50 (uM) modified / 1000, Tox21_110001=Tox21_202100, viability, 1 nM T3 present, 24 h) above 90 µM.

With `O=C(O)CP(=O)(O)O` [Phosphonoacetic acid], the 50% cytotoxic concentration (CC50) at 24 h (AC50 (uM) modified / 1000) was above 50 µM.

With `CCOP(=S)(OCC)O/N=C(\C#N)c1ccccc1` [Phoxim], the CC50 at 24 h is, setting by setting: (AC50 (uM) modified / 1000, Tox21_110001=Tox21_113357, viability, 1 nM T3 present, 24 h) above 50 µM; (AC50 (uM) modified / 1000, Tox21_110001=Tox21_301580, viability, 1 nM T3 present, 24 h) above 90 µM.

On to `NC(=O)c1ccccc1C(N)=O` [Phthalamide], for which the CC50 at 24 h (AC50 (uM) modified / 1000) was above 90 µM.

As for `c1ccc2cnncc2c1` [Phthalazine], the 50% cytotoxic concentration (CC50) at 24 h (AC50 (uM) modified / 1000) was above 90 µM.

Where the note is “AC50 (uM) modified / 1000”, `O=C(O)c1ccccc1C(=O)O` [Phthalic acid] registered a CC50 at 24 h above 90 µM.

Take `O=C1OC(=O)c2ccccc21` [Phthalic anhydride]: under “AC50 (uM) modified / 1000”, the CC50 at 24 h was above 90 µM.

For `O=C(O)c1ccccc1C(=O)Nc1ccc(S(=O)(=O)Nc2nccs2)cc1` [Phthalylsulfathiazole], the cytotoxic concentration (CC50) at 24 h (AC50 (uM) modified / 1000) is above 50 µM.

`CCCCCCCCCCCCCCCC(=O)O[C@@H]1CC(C)=C(/C=C/C(C)=C/C=C/C(C)=C/C=C/C=C(C)/C=C/C=C(C)/C=C/C2=C(C)C[C@@H](OC(=O)CCCCCCCCCCCCCCC)CC2(C)C)C(C)(C)C1` [Physalien] gave a CC50 at 24 h (AC50 (uM) modified / 1000) above 50 µM.

As for `CNC(=O)Oc1ccc2c(c1)[C@]1(C)CCN(C)[C@@H]1N2C` [Physostigmine], the CC50 at 24 h (AC50 (uM) modified / 1000) was above 90 µM.

`CC1=C(C/C=C(\C)CCC[C@H](C)CCC[C@H](C)CCCC(C)C)C(=O)c2ccccc2C1=O` [Phytonadione] had a cytotoxic concentration (CC50) at 24 h (AC50 (uM) modified / 1000) above 50 µM.

Compound `Nc1c(Cl)c(Cl)nc(C(=O)O)c1Cl` [Picloram] showed a CC50 at 24 h (AC50 (uM) modified / 1000) above 100 µM.

Under “AC50 (uM) modified / 1000”, `NNc1nnc(Cc2ccncc2)c2ccccc12` [Picodralazine] returned a CC50 at 24 h above 50 µM.

Regarding `O=C(O)c1ccccn1` [Picolinic acid], under “AC50 (uM) modified / 1000”, the half-maximal cytotoxic concentration (CC50) at 24 h was above 50 µM.

The compound `OCc1ccccn1` [Piconol] gave a CC50 at 24 h (AC50 (uM) modified / 1000) above 50 µM.

`O=S(=O)(O)Oc1ccc(C(c2ccc(OS(=O)(=O)O)cc2)c2ccccn2)cc1` [Picosulfate sodium] returned a 50% cytotoxic concentration (CC50) at 24 h (AC50 (uM) modified / 1000) above 50 µM.

For the compound `CO/C=C(/C(=O)OC)c1ccccc1COc1cccc(C(F)(F)F)n1` [Picoxystrobin], the cytotoxic concentration (CC50) at 24 h (AC50 (uM) modified / 1000) is above 90 µM.

`O=C1CC[C@@H](C(=O)O)N1` [Pidolic acid] showed a CC50 at 24 h (AC50 (uM) modified / 1000) above 50 µM.

On to `O=C1CC[C@@H](C(=O)N2CSC[C@H]2C(=O)O)N1` [Pidotimod] ([pGlu]-[Thz]-OH), for which the 50% cytotoxic concentration (CC50) at 24 h (AC50 (uM) modified / 1000) is above 50 µM.

For `Clc1ccccc1-c1nc(-c2ccncc2)no1` [Pifexole], for the setting “AC50 (uM) modified / 1000”, the half-maximal cytotoxic concentration (CC50) at 24 h is above 50 µM.

Broadly, the CC50 is the concentration that lowers cell viability or growth by half. Lower therefore signals greater toxicity to the cells.
